Laboratory results published in article PMC6961116, “Scaffold-hopping identifies furano[2,3-d]pyrimidine amides as potent Notum inhibitors” (Bioorganic & Medicinal Chemistry Letters, 2020).
Where two headings read alike, the source gives them in different places.

How the values were obtained:
[1] = test system: MDCK-MDR1 monolayer; details: amides 4, cited from earlier work; for MDCK-MDR1 AB Papp: A to B direction; for MDCK-MDR1 BA Papp: B to A direction
[2] = molecular target: T1, Notum(81–451 Cys330Ser) (Homo sapiens, UniProt Q6P988, C330S); test: Notum biochemical OPTS assay (carboxylesterase activity); details: for IC50: OPTS substrate, 1 h incubation, geometric mean ± s.d.
T1 sequence (Q6P988 81-451 C330S): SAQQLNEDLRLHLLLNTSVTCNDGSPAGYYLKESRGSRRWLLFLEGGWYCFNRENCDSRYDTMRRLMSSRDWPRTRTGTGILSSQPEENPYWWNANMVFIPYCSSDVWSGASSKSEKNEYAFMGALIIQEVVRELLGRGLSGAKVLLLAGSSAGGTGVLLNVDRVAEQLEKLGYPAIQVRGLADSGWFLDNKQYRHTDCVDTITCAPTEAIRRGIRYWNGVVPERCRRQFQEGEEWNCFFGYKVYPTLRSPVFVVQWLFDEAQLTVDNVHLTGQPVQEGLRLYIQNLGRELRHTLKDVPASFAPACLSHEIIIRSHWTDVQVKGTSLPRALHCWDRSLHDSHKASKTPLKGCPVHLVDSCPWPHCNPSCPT

[3] = Metabolic stability in mouse liver microsomes (MLM); type: in vitro ADME; details: mouse liver microsomes
[4] = test system: P-gp (MDR1); test: MDCK-MDR1 cell permeability and efflux; type: in vitro ADME; details: dog; for efflux ratio: MDCK-MDR1, read-out: MDCK-MDR1 efflux ratio (ER)
[5] = molecular target: T2, Notum (Homo sapiens, UniProt Q6P988); test: Notum TCF/LEF reporter (Luciferase) HEK293 cell assay
T2 sequence (Q6P988 20-496): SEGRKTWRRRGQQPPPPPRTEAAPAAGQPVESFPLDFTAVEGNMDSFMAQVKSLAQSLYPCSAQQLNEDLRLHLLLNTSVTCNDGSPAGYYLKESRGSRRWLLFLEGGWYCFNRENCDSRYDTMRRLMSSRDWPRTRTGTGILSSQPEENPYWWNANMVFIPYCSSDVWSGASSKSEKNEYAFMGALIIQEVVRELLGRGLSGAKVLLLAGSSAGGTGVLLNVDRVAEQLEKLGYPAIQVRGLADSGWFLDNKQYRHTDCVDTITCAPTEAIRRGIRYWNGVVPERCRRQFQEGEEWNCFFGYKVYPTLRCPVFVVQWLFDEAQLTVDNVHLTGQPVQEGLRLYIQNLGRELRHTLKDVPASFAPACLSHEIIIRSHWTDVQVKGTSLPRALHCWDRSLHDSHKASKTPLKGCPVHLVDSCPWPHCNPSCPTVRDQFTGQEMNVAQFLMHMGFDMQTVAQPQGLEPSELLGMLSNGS
From the text: Selected compounds were screened for inhibition of Notum activity in a Wnt/β-catenin signaling pathway TCF/LEF Reporter (Luciferase) HEK293 cell line and Notum occupancy in a FP-biotin competition assay.[15], [18]

[6] = MDCK-MDR1, A to B direction, read-out: MDCK-MDR1 AB Papp
[7] = MDCK-MDR1, B to A direction, read-out: MDCK-MDR1 BA Papp
[8] = read-out: Notum EC50 (TCF-LEF), rWNT3a 100 ng/mL, Notum 500 ng/mL, geometric mean ± s.d., n = 3–4

O=C1CN(C(=O)CSc2ncnc3c(C4CC4)c(Cl)sc23)CN1 [Compound 4e]
MDCK-MDR1 AB Papp [1]: 3.8e-06 cm/s | MDCK-MDR1 BA Papp [1]: 1.4e-05 cm/s

O=C(CSc1ncnc2c(C3CC3)c(Cl)sc12)N1CCn2cnnc2C1 [Compound 4f]
MDCK-MDR1 AB Papp [1]: 9.5e-07 cm/s | MDCK-MDR1 BA Papp [1]: 9.3e-05 cm/s

Cc1sc2ncnc(SCC(=O)N(C)C)c2c1Cl [Compound 5a]
IC50 [2]: 15 ± 6 nM | MLM Cli [3]: 360 µL/min/mg

Cc1sc2ncnc(SCC(=O)N3CCCCC3)c2c1Cl [Compound 5b]
IC50 [2]: 220 ± 12 nM

Cc1sc2ncnc(SCC(=O)N3CCOCC3)c2c1Cl [Compound 5c]
IC50 [2]: 69 ± 10 nM

Cc1sc2ncnc(SCC(=O)N3CCNC(=O)C3)c2c1Cl [Compound 5d]
IC50 [2]: 5.8 ± 4 nM | MLM Cli [3]: 19 µL/min/mg | Papp [4, 6]: 12 ×10⁻⁶ cm/s | Papp [4, 7]: 66 ×10⁻⁶ cm/s | efflux ratio [4]: 5.5

Cc1sc2ncnc(SCC(=O)N3CNC(=O)C3)c2c1Cl [Compound 5e]
IC50 [2]: 2.7 ± 0.5 nM | MLM Cli [3]: 65 µL/min/mg | Papp [4, 6]: 14 ×10⁻⁶ cm/s | Papp [4, 7]: 82 ×10⁻⁶ cm/s | efflux ratio [4]: 5.9

Cc1sc2ncnc(SCC(=O)N3CCN(C)C(=O)C3)c2c1Cl [Compound 5g]
IC50 [2]: 6.2 ± 0.5 nM | MLM Cli [3]: 33 µL/min/mg | Papp [4, 6]: 23 ×10⁻⁶ cm/s | Papp [4, 7]: 62 ×10⁻⁶ cm/s | efflux ratio [4]: 2.7

CCN1CCN(C(=O)CSc2ncnc3sc(C)c(Cl)c23)CC1=O [Compound 5h]
IC50 [2]: 4.2 ± 0.4 nM | MLM Cli [3]: 100 µL/min/mg | Papp [4, 6]: 1.1 ×10⁻⁶ cm/s | Papp [4, 7]: 37 ×10⁻⁶ cm/s | efflux ratio [4]: 34

Cc1sc2ncnc(SCC(=O)N3CC(=O)NC(C)C3)c2c1Cl (centres unmarked) [Compound 5i]
IC50 [2]: 33 ± 5 nM

Cc1sc2ncnc(SCC(=O)N3CC(=O)NC(C)(C)C3)c2c1Cl [Compound 5j]
IC50 [2]: 450 ± 200 nM

Cc1sc2ncnc(SCC(=O)N3CC(=O)N4CCCC4C3)c2c1Cl (centres unmarked) [Compound 5k]
IC50 [2]: 20 ± 4 nM | MLM Cli [3]: 63 µL/min/mg | Papp [4, 6]: 7 ×10⁻⁶ cm/s | Papp [4, 7]: 51 ×10⁻⁶ cm/s | efflux ratio [4]: 7.3

CCN1CN(C(=O)CSc2ncnc3sc(C)c(Cl)c23)CC1=O [Compound 5m]
IC50 [2]: 2.6 ± 0.1 nM | MLM Cli [3]: 43 µL/min/mg | Papp [4, 6]: 35 ×10⁻⁶ cm/s | Papp [4, 7]: 51 ×10⁻⁶ cm/s | efflux ratio [4]: 1.5

Cc1sc2ncnc(SCC(=O)N3CC(=O)N(C4CC4)C3)c2c1Cl [Compound 5n]
IC50 [2]: 3.8 ± 1.3 nM | MLM Cli [3]: 49 µL/min/mg

Cc1sc2ncnc(SCC(=O)N3CC(=O)N(CC(F)(F)F)C3)c2c1Cl [Compound 5o]
IC50 [2]: 3.9 ± 0.4 nM | MLM Cli [3]: 140 µL/min/mg

Cc1sc2ncnc(SCC(=O)N3CCn4c(C)nnc4C3)c2c1Cl [Compound 5p]
IC50 [2]: 16 ± 2 nM | MLM Cli [3]: 15 µL/min/mg | Papp [4, 6]: 0.5 ×10⁻⁶ cm/s | Papp [4, 7]: 51 ×10⁻⁶ cm/s | efflux ratio [4]: > 100

CCc1nnc2n1CCN(C(=O)CSc1ncnc3sc(C)c(Cl)c13)C2 [Compound 5q]
IC50 [2]: 23 ± 5 nM | MLM Cli [3]: 38 µL/min/mg | Papp [4, 6]: 0.8 ×10⁻⁶ cm/s | Papp [4, 7]: 65 ×10⁻⁶ cm/s | efflux ratio [4]: 81

Cc1sc2ncnc(SCC(=O)N3CCn4c(nnc4C4CC4)C3)c2c1Cl [Compound 5r]
IC50 [2]: 27 ± 3 nM | MLM Cli [3]: 53 µL/min/mg | Papp [4, 6]: 0.8 ×10⁻⁶ cm/s | Papp [4, 7]: 78 ×10⁻⁶ cm/s | efflux ratio [4]: 97

Cc1sc2ncnc(SCC(=O)N3CCn4c(nnc4C(F)(F)F)C3)c2c1Cl [Compound 5s]
IC50 [2]: 38 ± 3 nM | MLM Cli [3]: 93 µL/min/mg | Papp [4, 6]: 15 ×10⁻⁶ cm/s | Papp [4, 7]: 85 ×10⁻⁶ cm/s | efflux ratio [4]: 5.7

Cc1sc2ncnc(SCC(=O)N3CCn4ncnc4C3)c2c1Cl [Compound 5t]
IC50 [2]: 15 ± 3 nM | MLM Cli [3]: 53 µL/min/mg | Papp [4, 6]: 19 ×10⁻⁶ cm/s | Papp [4, 7]: 49 ×10⁻⁶ cm/s | efflux ratio [4]: 2.6

Cc1nc2n(n1)CCN(C(=O)CSc1ncnc3sc(C)c(Cl)c13)C2 [Compound 5u]
IC50 [2]: 11 ± 6 nM | MLM Cli [3]: 37 µL/min/mg | Papp [4, 6]: 17 ×10⁻⁶ cm/s | Papp [4, 7]: 44 ×10⁻⁶ cm/s | efflux ratio [4]: 2.6

Cc1sc2ncnc(SCC(=O)N3CCn4nc(C(F)(F)F)nc4C3)c2c1Cl [Compound 5v]
IC50 [2]: 18 ± 5 nM | MLM Cli [3]: 140 µL/min/mg | Papp [4, 6]: 15 ×10⁻⁶ cm/s | Papp [4, 7]: 27 ×10⁻⁶ cm/s | efflux ratio [4]: 1.8

Cc1cc2c(SCC(=O)O)ncnc2s1 [Compound 6]
IC50 [2]: 790 ± 70 nM

Cc1nc(SCC(=O)O)c2c(C)c(C)sc2n1 [Compound 8]
IC50 [2]: 2100 nM

Cc1c(C(F)(F)F)sc2ncnc(SCC(=O)O)c12 [Compound 9]
IC50 [2]: 1 ± 0.4 nM

Cc1sc2ncnc(SCC(=O)O)c2c1C(F)(F)F [Compound 10]
IC50 [2]: 3.9 ± 0.7 nM

Cc1c(C#N)sc2ncnc(SCC(=O)O)c12 [Compound 11, 2-((6-cyano-5-methylthieno[2,3-d]pyrimidin-4-yl)thio)acetic acid]
IC50 [2]: 25 ± 4 nM

N#Cc1sc2c(SCC(=O)O)ncnc2c1C1CC1 [Compound 12]
IC50 [2]: 8.1 nM

O=C(O)CSc1ncnc2[nH]ccc12 [Compound 13]
IC50 [2]: 77000 nM

O=C(O)CSc1ncnc2[nH]cc(Cl)c12 [Compound 14]
IC50 [2]: 20000 nM

Cn1ccc2c(SCC(=O)O)ncnc21 [Compound 15, 2-((7-methyl-7H-pyrrolo[2,3-d]pyrimidin-4-yl)thio)acetic acid]
IC50 [2]: 15000 nM

O=C(O)CSc1ncnc2c1ccn2Cc1ccccc1 [Compound 16, 2-((7-benzyl-7H-pyrrolo[2,3-d]pyrimidin-4-yl)thio)acetic acid]
IC50 [2]: 50000 nM

Cc1nn(C)c2ncnc(SCC(=O)O)c12 [Compound 17]
IC50 [2]: 1100 nM | fold weaker Notum inhibition than 1 ([2]; relative to 1): 1000 fold

Cc1oc2ncnc(SCC(=O)O)c2c1C [Compound 18]
IC50 [2]: 50 ± 14 nM | fold weaker Notum inhibition than 7 ([2]; relative to thiophene analogue 7): 10 fold

Cc1c(C(F)(F)F)oc2ncnc(SCC(=O)O)c12 [Compound 19]
IC50 [2]: 3.2 ± 0.5 nM

CN1CN(C(=O)CSc2ncnc3c(C4CC4)c(Cl)sc23)CC1=O [Compound 20]
MLM Cli [3]: 45 µL/min/mg | Papp [4, 6]: 5.9 ×10⁻⁶ cm/s | Papp [4, 7]: 12 ×10⁻⁶ cm/s | efflux ratio [4]: 2 | EC50 [5]: < 250 nM | EC50 [5, 8]: 110 nM

Cc1sc2ncnc(SCC(=O)N3CC(=O)N(C)C3)c2c1C [Compound 21]
IC50 [2]: 9.4 ± 1.5 nM | MLM Cli [3]: 31 µL/min/mg | Papp [4, 6]: 21 ×10⁻⁶ cm/s | Papp [4, 7]: 45 ×10⁻⁶ cm/s | efflux ratio [4]: 2.1 | Activation of Wnt signaling (in words) ([5]; TCF/LEF reporter, rWNT3a 100 ng/mL, Notum 500 ng/mL): only modest activation of Wnt signaling | EC50 [5, 8]: 1300 nM

Cc1c(C(F)(F)F)sc2ncnc(SCC(=O)N3CC(=O)N(C)C3)c12 [Compound 22]
IC50 [2]: 1.6 ± 0.1 nM | MLM Cli [3]: 27 µL/min/mg | Papp [4, 6]: 31 ×10⁻⁶ cm/s | Papp [4, 7]: 35 ×10⁻⁶ cm/s | efflux ratio [4]: 1.1 | EC50 [5, 8]: 210 nM

Cc1sc2ncnc(SCC(=O)N3CC(=O)N(C)C3)c2c1C(F)(F)F [Compound 23]
IC50 [2]: 7 ± 2.5 nM | MLM Cli [3]: 24 µL/min/mg | EC50 [5, 8]: 170 nM
